20 compounds from patent US20240293364A1, “BIOMARKERS FOR CANCER THERAPY USING MDM2 ANTAGONISTS” (OTSUKA PHARMACEUTICAL CO., LTD., priority 2021, published 2024) can be followed below.

Where a name gives a salt, the structure may show the parent alone.

The test system of the first assay is SJSA-1. As to the kind of experiment: SJSA-1 cell viability, Protocol B (CellTiter-Glo). To be noted: Homo sapiens, SJSA-1, read-out: SJSA1 IC50 (μM) (Protocol B), Protocol B. (In general: In ATP-based viability assays light output follows the ATP content of the culture.)
Protocol: The CellTiter-Glo® Luminescent Cell Viability Assay is a homogeneous method to determine the number of viable cells in culture based on quantitation of the ATP present, which signals the presence of metabolically active cells. […] 100 μl of CTG reagent (Promega #G7573) was added to all wells and luminescence was measured on the topcount.
The EC50 values were determined from a sigmoidal 4 parameter curve lit using XLfit in conjunction with Activity Base (IMBS; Guildford, Surrey, UK).
Take `CN(C)CC(C)(O)c1cc(F)c2c(c1)C(=O)N(Cc1ccc(Cl)cn1)[C@@]2(O[C@H]1CCOC1)c1ccc(Cl)cc1` (some centres unmarked) [Example 138]: the IC50 is 0.56 µM.

With `[2H]C([2H])(O)C1(C([2H])([2H])O[C@]2(c3ccc(Cl)cc3)c3c(F)cc(C(C)(O)CC)cc3C(=O)N2Cc2ncc(C#N)cn2)CC1` (some centres unmarked) [Example 576], the IC50 is 0.14 µM.

With `CO[C@]1(c2ccc(Cl)cc2)c2c(F)cc(C(C)(O)C3CCS(=O)(=O)CC3)cc2C(=O)N1Cc1ccc(Cl)cn1` (some centres unmarked) [Example 311], the IC50 is 0.25 µM.

For the compound `Cn1cc(C(C)(O)c2cc(F)c3c(c2)C(=O)N(Cc2ccc(Cl)cn2)[C@@]3(OCC2(C(N)=O)CC2)c2ccc(Cl)cc2)cn1` (some centres unmarked) [Example 178], the IC50 came out at 0.1 µM.

For the compound `Cc1nc(C(C)(O)c2cc(F)c3c(c2)C(=O)N(Cc2ccc(Cl)cn2)[C@@]3(OCC2(C(N)=O)CC2)c2ccc(Cl)cc2)cn1C` (some centres unmarked) [Example 197], the IC50 worked out at 0.21 µM.

For `CCn1cc(C(C)(O)c2cc(F)c3c(c2)C(=O)N(Cc2ccc(Cl)cn2)[C@@]3(OCC2(C(N)=O)CC2)c2ccc(Cl)cc2)cn1` (some centres unmarked) [Example 180], the IC50 is 0.16 µM.

Still in this assay, the particulars now being: read-out: SJSA1 IC50 (μM) (Protocol B); 72 hrs, CellTiter-Glo.
With `CC[C@@](O)(c1cc(F)c2c(c1)C(=O)N(Cc1ccc(Cl)cc1CC(=O)O)[C@@]2(OC)c1ccc(Cl)cc1)C1CCOCC1` [Example 122, 2-(5-chloro-2-{[(1R)-1-(4-chlorophenyl)-7-fluoro-5-[(1S)-1-hydroxy-1-(oxan-4-yl)propyl]-1-methoxy-3-oxo-2,3-dihydro-1H-isoindol-2-yl]methyl}phenyl)acetic acid (tris(hydroxymethyl)aminomethane salt)], the IC50 was 0.024 µM.

For the compound `CC[C@@](O)(c1cc(F)c2c(c1)C(=O)N([C@@H](CCC(=O)O)c1ccc(OC)cc1)[C@@]2(OC)c1ccc(Cl)cc1)C1(F)CCOCC1` [Example 113], the IC50 was 0.02 µM.

The same assay, now with this note: read-out: SJSA1 IC50 (μM) (Protocol B); Protocol B.
As for `CCOCC(C)(O)c1cc(F)c2c(c1)C(=O)N(Cc1ccc(Cl)cn1)[C@@]2(O[C@H]1CCOC1)c1ccc(Cl)cc1` (some centres unmarked) [Example 141], the IC50 is 1.8 µM.

Turning to “(3R)-3-(4-chlorophenyl)-2-[(4-chlorophenyl)methyl]-4-fluoro-3-{[1-(hydroxymethyl)cyclopropyl]methoxy}-6-(2-hydroxypropan-2-yl)-2,3-dihydro-1H-isoindol-1-one [Example 2]”, the IC50 turned out to be 3.4 µM.

`Cn1cc(C(C)(O)c2cc(F)c3c(c2)C(=O)N(Cc2ncc(Cl)cn2)[C@@]3(OCC2(CO)CC2)c2ccc(Cl)cc2)cn1` (some centres unmarked) [Example 348]: the IC50 is 0.27 µM.

In the case of `Cn1cnc(C(C)(O)c2cc(F)c3c(c2)C(=O)N(Cc2ccc(Cl)cn2)[C@@]3(OCC2(O)CC2)c2ccc(Cl)cc2)c1` (some centres unmarked) [Example 195], the IC50 amounted to 0.61 µM.

As for `CCC(O)(c1cc(F)c2c(c1)C(=O)N(Cc1ccc(C#N)cn1)[C@@]2(OCC1(CO)CC1)c1ccc(Cl)cc1)c1cn(C)cn1` (some centres unmarked) [Example 337], the IC50 came out at 0.058 µM.

Take `CO[C@]1(c2ccc(Cl)cc2)c2c(F)cc(C(C)(O)C3CCN(C(=O)CN(C)C)CC3)cc2C(=O)N1Cc1ccc(Cl)cn1` (some centres unmarked) [Example 298]: the IC50 was 0.55 µM.

As to `Cn1cc(C(C)(O)c2cc(F)c3c(c2)C(=O)N(Cc2ccc(Cl)cn2)[C@@]3(OCC2(C#N)CC2)c2ccc(Cl)cc2)cn1` (some centres unmarked) [Example 202], the IC50 is 0.11 µM.

Take `CO[C@]1(c2ccc(Cl)cc2)c2c(F)cc(C(C)(O)c3ccn(C)n3)cc2C(=O)N1Cc1ccc(Cl)cn1` (some centres unmarked) [Example 189]: the IC50 is 1 µM.

`Cn1cc(C(C)(O)c2cc(F)c3c(c2)C(=O)N(Cc2ccc(Cl)cn2)[C@@]3(OCC2(C#N)CC2)c2ccc(Cl)cc2)cn1` (some centres unmarked) [Example 201]: the concentration for half-maximal inhibition (IC50) is 0.76 µM.

On to `CN1CCN(CC(C)(O)c2cc(F)c3c(c2)C(=O)N(Cc2ccc(C#N)cn2)[C@@]3(OCC2(C#N)CC2)c2ccc(Cl)cc2)CC1` (some centres unmarked) [Example 279], for which the IC50 is 0.57 µM.

Turning to `Cn1cc(C(C)(O)c2cc(F)c3c(c2)C(=O)N(Cc2ccc(Cl)cn2)[C@@]3(OCC2(O)CC2)c2ccc(Cl)cc2)cn1` (some centres unmarked) [Example 200], the IC50 amounted to 0.099 µM.

Take `CC(O)(c1cc(F)c2c(c1)C(=O)N(Cc1ccc(C#N)cn1)[C@@]2(OCCO)c1ccc(Cl)cc1)C1CCC1` (some centres unmarked) [Example 406]: the half-maximal inhibitory concentration (IC50) was found to be 3.9 µM.

One may read the IC50 as the concentration needed to halve the response being measured.
